Tests used:
[1] = tested on: Euphorbia heterophylla; experiment: Greenhouse post-emergence herbicidal efficacy on Euphorbia heterophylla; format: in vivo
Experimental: (§1) The expected efficacy of a combination of L-glufosinate ammonium and the other herbicides was calculated using the well-established Colby method. Any difference between the observed and “expected” efficacy could be attributed to synergy between the two compounds.
(§2) In the Colby method, the expected (or predicted) response of a combination of herbicides is calculated by taking the product of the observed response for each individual component of the combination when applied alone, divided by 100, and subtracting this value from the sum of the observed response for each component when applied alone. An unexpected enhancement in efficacy of the combination is then determined by comparing the observed response of the combination to the expected (or predicted) response as calculated from the observed response of each individual component alone. If the observed response of the combination is greater than the expected (or predicted) response, or stated conversely, if the difference between the observed and expected response is greater than zero, then the combination is said to be synergistic or unexpectedly effective (Colby, S. R., Weeds, 1967(15), p. 20-22). The Colby method requires only a single dose of each herbicide applied alone and the mixture of both doses. The formula used to calculate the expected efficacy (EE) which was compared with the observed efficacy (OE) to determine the efficacy of the present disclosure is explained hereinbelow:
(§3) The expected efficacy for a combination of two active ingredients is as follows:
(§4) The expected efficacy for a combination of three active ingredients is as follows:
(§5) [formula] • wherein, • A=Observed efficacy of active ingredient A at the same concentration as used in the mixture. • B=Observed efficacy of the active ingredient B at the same concentration as used in the mixture. • C=Observed efficacy of the active ingredient C at the same concentration as used in the mixture.
(§6) Greenhouse trials were conducted to evaluate the efficacy of the combination of L-glufosinate ammonium and metribuzin, L-glufosinate ammonium and metribuzin+sulfentrazone and L-glufosinate ammonium and metribuzin+oxyfluorfen—on weeds Borreria verticillate, Euphorbia heterophylla.
(§7) The soil used was sandy clay loam—sand: 68.0%; silt: 8.0%; clay: 24.0%.
(§8) All treatments were in 4 replications per treatment with a spray volume of 150 L/ha.
The percentage efficacy was calculated at 7, 14 and 21 DAA. The target weed was Euphorbia heterophylla, and the concentration of the herbicide and the results are recorded in Table 2.
The percentage efficacy was calculated at 14, 21 and 28 DAA. The target weed was Euphorbia heterophylla, and the concentration of the herbicides and the results are recorded in Table 4.
The percentage efficacy was calculated at 14 and 21 DAA. The target weed was Euphorbia heterophylla, and the concentration of the herbicides and the results are recorded in Table 6.

[2] = tested on: Borreria verticillata; experiment: Greenhouse post-emergence herbicidal efficacy on Borreria verticillata; format: in vivo; conditions: 14 DAA
Experimental: as §1, §2, §3, §4, §5, §6, §7, §8
The percentage efficacy was calculated at 14 days after application (DAA). The target weed was Borreria verticillata, and the concentration of the herbicide and the results are recorded in Table 1.
The percentage efficacy was calculated at 14 DAA. The target weed was Borreria verticillata, and the concentration of the herbicides and the results are recorded in the Table 3.
The percentage efficacy was calculated at 14 DAA. The target weed was Borreria verticillata, and the concentration of the herbicides and the results are recorded in Table 5.

[3] = tested on: Viola arvensis, Bromus spp., Lolium spp., Agropyron repens and Urtica urens; conditions: reported by Hoechst et al., 1991; cited from earlier work

## CP(=O)(O)CC[C@H](N)C(=O)O.N [L-glufosinate ammonium, ammonium (2S)-2-amino-4-(methylphosphinato)butyric acid]
[1]; Table 2, 7 DAA
  Observed efficacy (%) of L-glufosinate ammonium (150 g a.i./ha): 95%
[1]; Table 2, 14 DAA
  Observed efficacy (%) of L-glufosinate ammonium (150 g a.i./ha): 85%
[1]; Table 2, 21 DAA
  Observed efficacy (%) of L-glufosinate ammonium (150 g a.i./ha): 70%
[1]; Table 4, 14 DAA
  Observed efficacy (%) of L-glufosinate ammonium (150 g a.i./ha): 88%
[1]; Table 4, 21 DAA
  Observed efficacy (%) of L-glufosinate ammonium (150 g a.i./ha): 85%
[1]; Table 4, 28 DAA
  Observed efficacy (%) of L-glufosinate ammonium (150 g a.i./ha): 85%
[1]; Table 6, 14 DAA
  Observed efficacy (%) of L-glufosinate ammonium (150 g a.i./ha): 85%
[1]; Table 6, 21 DAA
  Observed efficacy (%) of L-glufosinate ammonium (150 g a.i./ha): 70%
[2]; Table 1
  Observed efficacy (%) of L-glufosinate ammonium (150 g a.i./ha): 80%
[2]; Table 3
  Observed efficacy (%) of L-glufosinate ammonium (150 g a.i./ha): 80%
[2]; Table 5
  Observed efficacy (%) of L-glufosinate ammonium (150 g a.i./ha): 80%

## CP(=O)(O)CCC(N)C(=O)O (racemic) [glufosinate, DL-homoalanin-4-yl(methyl)phosphinic acid]
[3]
  Control of weed species by glufosinate: either not combated, or only weakly combated

## CCOc1cc(Oc2ccc(C(F)(F)F)cc2Cl)ccc1[N+](=O)[O-] [Oxyfluorfen]
[1]; Table 4, 14 DAA
  Observed efficacy (%) of oxyfluorfen (430 g a.i./ha): 65%
[1]; Table 4, 21 DAA
  Observed efficacy (%) of oxyfluorfen (430 g a.i./ha): 50%
[1]; Table 4, 28 DAA
  Observed efficacy (%) of oxyfluorfen (430 g a.i./ha): 40%
[2]; Table 3, 430 g a.i./ha
  Observed efficacy (%) of oxyfluorfen (430 g a.i./ha): 70%

## CSc1nnc(C(C)(C)C)c(=O)n1N [Metribuzin]
[1]; Table 2, 7 DAA
  Observed efficacy (%) of metribuzin (252 g a.i./ha): 35%
[1]; Table 2, 14 DAA
  Observed efficacy (%) of metribuzin (252 g a.i./ha): 25%
[1]; Table 2, 21 DAA
  Observed efficacy (%) of metribuzin (252 g a.i./ha): 15%
[1]; Table 4, 14 DAA
  Observed efficacy (%) of metribuzin (252 g a.i./ha): 30%
[1]; Table 4, 21 DAA
  Observed efficacy (%) of metribuzin (252 g a.i./ha): 20%
[1]; Table 4, 28 DAA
  Observed efficacy (%) of metribuzin (252 g a.i./ha): 10%
[1]; Table 6, 14 DAA
  Observed efficacy (%) of metribuzin (252 g a.i./ha): 85%
[1]; Table 6, 21 DAA
  Observed efficacy (%) of metribuzin (252 g a.i./ha): 85%
[2]; Table 1
  Observed efficacy (%) of metribuzin (252 g a.i./ha): 30%
[2]; Table 3
  Observed efficacy (%) of metribuzin (252 g a.i./ha): 30%
[2]; Table 5
  Observed efficacy (%) of metribuzin (252 g a.i./ha): 55%

## Cc1nn(-c2cc(NS(C)(=O)=O)c(Cl)cc2Cl)c(=O)n1C(F)F [Sulfentrazone]
[1]; Table 6, 14 DAA
  Observed efficacy (%) of sulfentrazone (300 g a.i./ha): 25%
[1]; Table 6, 21 DAA
  Observed efficacy (%) of sulfentrazone (300 g a.i./ha): 15%
[2]; Table 5, 300 g a.i./ha
  Observed efficacy (%) of sulfentrazone (300 g a.i./ha): 30%

Reference: US20260215431A1, “AN HERBICIDAL COMBINATION, COMPOSITION AND METHOD OF CONTROLLING WEEDS USING THE SAME” (priority 2023, published 2026)
